{"source": "patent US11389427B2", "about": "“Compositions and methods of treating cardiac hypertrophy and heart failure” (CASE WESTERN RESERVE UNIVERSITY, priority 2017, dated 2022)", "key": {"[1]": {"test_system": "neonatal rat ventricular myocytes (NRVMs)", "assay": "Phenylephrine-induced (PE-induced) cardiomyocyte hypertrophy in NRVMs", "format": "cell-based", "design": "PE-induced cellular hypertrophy (cell size) / PE-induced expression of cellular stress markers (qPCR of Nppa and Nppb): unit of the concentration uncertain", "procedure": "(§1) SR9009 was synthesized and purified in the laboratory of Thomas Burris (Department of Pharmacology and Physiology, St. Louis University, St. Louis, Mo., USA). For in vitro experiments, SR9009 was dissolved in DMSO and administered at […]; GSK4112 (EMD Millipore) was dissolved in DMSO and administered at […] using an equal volume of DMSO as control. For in vivo experiments, SR9009 was dissolved in 5% DMSO/10% Cremaphor EL (Sigma-Aldrich, C5135)/85% PBS in a working solution at 10 mg/ml. Micewere injected at a dose of 100 mg/kg/day given i.p. once daily at zeitgeber time 8 (ZT8). The diluent without SR9009 of the same volume was used as control.\nNRVMs and CFs were isolated from the hearts of 2-day-old Sprague-Dawley rat pups (Charles River Laboratories). The cells were differentially preplated for 1.5 hr. The nonattached cells were collected as NRVM and replated with 48 hr exposure to BrdU to suppress nonmyocytes. The attached cells were passaged 2-3 times to obtain CFs. NRVMs were initially plated in growth medium (DMEM supplemented with 10% FBS, 100 U/ml penicillin-streptomycin, and 2 mM L-glutamine) for 48 hr and maintained in serum-free media thereafter (DMEM supplemented with 1% insulin-transferrin-selenium liquid media supplement [Sigma-Aldrich, 13146], 100 U/ml penicillin-streptomycin). For hypertrophic stimulation, NRVM were incubated with SR9009 or GSK4112 versus DMSO for 24 hr, followed by stimulation with PE (100 μM) for the indicated time. […]\nNRVM were plated on glass coverslips in 6-well dishes at a density of 1×10^5 cells/ml. […] Quantitation of cardiomyocyte cell surface area was performed on anti-actinin-stained cardiomyocytes using fluorescent microscopy and ImagePro software. […]\n(§2) For tissue RNA, a 10-20 mg piece of mouse heart at apex was preserved in RNA Later stabilization reagent (Qiagen) followed by mechanical disruption/homogenization in Trizol (Life Technologies) on a TissueLyser (Qiagen) using stainless steel beads (Qiagen). […] Relative expression was calculated using the ΔΔCt-method with normalization to Ppib (Cyclophilin-B). […]"}, "[2]": {"test_system": "C57BL/6J mice, TAC pressure overload", "assay": "Pressure overload model, transaortic constriction (TAC, 27 gauge), 6-week followup", "format": "in vivo", "settings": "for Corrected left ventricle mass (LVm): echocardiogram; for Ejection fraction (EF): SR9009 i.p. daily from 1 day after surgery", "procedure": "SR9009 was synthesized and purified in the laboratory of Thomas Burris (Department of Pharmacology and Physiology, St. Louis University, St. Louis, Mo., USA). For in vitro experiments, SR9009 was dissolved in DMSO and administered at […]; GSK4112 (EMD Millipore) was dissolved in DMSO and administered at […] using an equal volume of DMSO as control. For in vivo experiments, SR9009 was dissolved in 5% DMSO/10% Cremaphor EL (Sigma-Aldrich, C5135)/85% PBS in a working solution at 10 mg/ml. […] The diluent without SR9009 of the same volume was used as control.\n(§3) All mice were C57BL/6J littermate males aged 9 weeks at the start of the experiment. Mice were anesthetized with ketamine/xylazine, mechanically ventilated (Harvard apparatus), and subjected to thoracotomy. The aortic arch was constricted between the left and right carotid arteries using a 7.0 silk suture and a 27- or 28-gauge needle as previously described (20). Chemicals were obtained from Sigma-Aldrich.\nFor transthoracic echocardiography, mice were anesthetized with 1% inhalational isofluorane and imaged using the Vevo 770 High Resolution Imaging System (Visual Sonics Inc.) and the RMV-707B 30 MHz probe. Measurements were obtained from M-mode sampling, and integrated EKVimages were taken in the LV short axis at the mid-papillary level.\nShort-axis heart sections from the midventricle were fixed in PBS/4% paraformaldehyde and embedded in paraffin. Fibrosis was visualized using Gomori's Trichrome staining kit (Sigma-Aldrich) with quantification of fibrotic area using ImagePro software. TUNEL staining was performed using the CardioTACS In Situ Apoptosis Detection kit (R&D Systems) according to manufacturer's instructions. Cryopreserved sections were used for myocardial capillary staining, which was performed in frozen LV sections using anti-PECAM-1 antibodies (1:200, BD Pharmingen, MEC13.3). The cardiomyocyte cross-sectional area was determined by staining with WGA Alexa 594 (Life Technologies) and analyzed using ImagePro software.\nGiven the strong effect of SR9009 in blocking the cellular remodeling in response to neurohormonal stress, we next tested the role of REV-ERBα activation in vivo using the classical pressure overload model. We started daily i.p. injection of SR9009 or Veh 1 day after transaortic constriction (TAC, 27 gauge) surgery and monitored cardiac hypertrophy and function by echocardiogram for 6 weeks. […] These findings were later confirmed by autopsy performed 6 weeks after TAC by heart weight and muscle fiber size analyses using wheat germ agglutinin staining on cryopreserved sections (FIGS. 3, B-E)."}, "[3]": {"test_system": "C57BL/6J mice, 28-gauge TAC heart failure model", "assay": "Heart failure model, 28-gauge TAC with cross-over, 11-week followup", "format": "in vivo, mouse", "procedure": "as §1, §3\nFor transthoracic echocardiography, mice were anesthetized with 1% inhalational isofluorane and imaged using the Vevo 770 High Resolution Imaging System (Visual Sonics Inc.) and the RMV-707B 30 MHz probe. Measurements were obtained from M-mode sampling, and integrated EKVimages were taken in the LV short axis at the mid-papillary level. […]"}, "[4]": {"settings": "mouse, in vivo", "procedure": "Conscious tail-vein systolic blood pressure was measured using the BP2000 Blood Pressure Analysis System (Visitech Systems Inc.) as recommended by the manufacturer. To allow mice to adapt to the apparatus, we performed daily blood pressure measurements for 1 week prior to beginning experiments.\nSR9009 is a drug given systemically and may potentially affect other systems, such as the vascular tone, although pressure overload itself is considered a relatively specific stress directly on the heart. To exclude the possibility that the improved cardiac function and reduced hypertrophy in vivo is associated with improvement in hemodynamics, we measured blood pressure using tail cuff and found there is no difference in mice receiving 4 weeks of Veh (mean arterial pressure [MAP]=106 mmHg) or SR9009 (MAP=115 mmHg, P=0.24)."}, "[5]": {"test_system": "cardiac fibroblasts (CFs)", "assay": "TGβ1-induced inflammatory response of cultured cardiac fibroblasts (CFs)", "format": "cell-based, rat", "settings": "cultured CFs pretreated with Veh or SR9009", "procedure": "NRVMs and CFs were isolated from the hearts of 2-day-old Sprague-Dawley rat pups (Charles River Laboratories). The cells were differentially preplated for 1.5 hr. The nonattached cells were collected as NRVM and replated with 48 hr exposure to BrdU to suppress nonmyocytes. The attached cells were passaged 2-3 times to obtain CFs. NRVMs were initially plated in growth medium (DMEM supplemented with 10% FBS, 100 U/ml penicillin-streptomycin, and 2 mM L-glutamine) for 48 hr and maintained in serum-free media thereafter (DMEM supplemented with 1% insulin-transferrin-selenium liquid media supplement [Sigma-Aldrich, 13146], 100 U/ml penicillin-streptomycin). For hypertrophic stimulation, NRVM were incubated with SR9009 or GSK4112 versus DMSO for 24 hr, followed by stimulation with PE (100 μM) for the indicated time. CFs were cultured in DMEM supplemented with 10% FBS, 100 U/ml penicillin-streptomycin, and 2 mM L-glutamine and stimulated with TGβ1 (eBioscience)."}, "[6]": {"test_system": "human induced pluripotent stem cell-differentiated cardiomyocytes (iPS-CM)", "assay": "Endothelin-1-induced hypertrophic response in human iPS-differentiated cardiomyocytes", "format": "cell-based", "settings": "SR9009 pretreatment, ET-1 (10 nM)", "procedure": "We purchased human induced pluripotent stem cell-differentiated cardiomyocytes from Cellular Dynamics (iCell). We followed manufacturer's protocol and measured NPPB expression 24 hr after ET-1 (10 nM, Sigma-Aldrich) induction.\nas §2, with “(Qiagen). RNA was purified from the aqueous phase using the miRNAeasy kit (Qiagen) following manufacturer's instructions. For cellular samples, total RNA from NRVM was isolated using the High Pure RNA isolation kit (Roche Diagnostics) with on-column DNAase treatment according to manufacturer's directions.” for “(Qiagen).”\nWe induced cellular hypertrophic response in human induced pluripotent stem cell-differentiated cardiomyocytes with endothelin-1 (ET-1) and monitored NPPB (BNP) expression with SR9009 or Veh pretreatment."}, "[7]": {"test_system": "mouse heart mitochondria", "assay": "Mitochondria number, morphology and respiration in mouse hearts after TAC", "format": "in vivo", "settings": "10 weeks after TAC, vs Veh", "procedure": "The assay was performed using Seahorse (Agilent) and following the manufacturer's published protocol. Isolated mitochondria (0.5 μg; measured by BCA assay) were loaded per assay.\nTotal DNA was extracted from the hearts or NRVMs using the QIAamp DNA Mini Kit (Qiagen, 51304). Mitochondrial DNA content was assessed by qPCR using primers specific for multiple mitochondrial-encoded genes (int-Cox1, mt-Nd2, int-Nd1, and mt-Nd5) and normalized to nuclear DNA content (a specific locus on mouse chromosome 6) using the ΔΔCt method.\nSmall pieces of tissue from the LV free wall were fixed by sequential immersion in triple aldehyde-DMSO, ferrocyanide-reduced osmium tetroxide, and acidified uranyl acetate; dehydrated in ascending concentrations of ethanol; passed through propylene oxide; and embedded in Poly/Bed resin (Polysciences Inc., 21844-1). Thin sections were sequentially stained with acidified uranyl acetate, followed by a modification of Sato's triple lead stain, and examined with a JEOL 1200EX electron microscope."}}, "data": [{"molecule": "CCOC(=O)N1CCC(CN(Cc2ccc(Cl)cc2)Cc2ccc([N+](=O)[O-])s2)C1", "note": "(stereo not shown) [SR9009]", "values": [{"measurement": "PE-induced expression of cellular stress markers (qPCR of Nppa and Nppb)", "setting": "[1]; NRVMs pretreated 24 hours, then PE 48 hours, SR9009 at 5 (unit uncertain), GSK4112 at 10 (unit uncertain)", "value": "effectively blocked"}, {"measurement": "PE-induced cellular hypertrophy (cell size)", "setting": "[1]; NRVMs pretreated 24 hours, then PE (100 μM) 48 hours, SR9009 at 5 (unit uncertain)", "value": "effectively blocked"}, {"measurement": "PE repression of Pdk4 expression (RNA-Seq)", "setting": "[1]; NRVMs, SR9009 given 24 hr prior to PE", "value": "ameliorated"}, {"measurement": "Toxicity of the SR9009 dose", "setting": "[2]; 10 mg/kg/day, daily i.p., mice", "value": "no apparent toxicity"}, {"measurement": "Corrected left ventricle mass (LVm)", "setting": "[2]; 4 weeks after 27-gauge TAC", "value": 111.4, "unit": "mg"}, {"measurement": "Ejection fraction (EF)", "setting": "[2]; 4 weeks after 27-gauge TAC", "value": 61.4, "unit": "%"}, {"measurement": "Corrected left ventricle mass (LVm)", "setting": "[2]; 6 weeks after 27-gauge TAC", "value": 114.8, "unit": "mg"}, {"measurement": "Ejection fraction (EF)", "setting": "[2]; 6 weeks after 27-gauge TAC", "value": 60.6, "unit": "%"}, {"measurement": "Cell death, TUNEL positives per cross-section of the whole heart", "setting": "[2]; 6 weeks after TAC", "value": "13.4 positives per cross-section of the whole heart"}, {"measurement": "Capillary density", "setting": "[2]; after 6 weeks of TAC, Veh- vs SR9009-treated", "value": "no difference"}, {"measurement": "Intramuscular fibrosis area", "setting": "[2]; end of 6 weeks after TAC, Gomori Trichrome", "value": 1.1, "unit": "%"}, {"measurement": "Ejection fraction (EF)", "setting": "[3]; 6 weeks after 28-gauge TAC, Group II, SR9009 from 2 weeks after TAC (average EF 44% at start)", "value": "43.9%±5%"}, {"measurement": "Ejection fraction (EF)", "setting": "[3]; after cross-over, additional 5 weeks, Group I received SR9009 (EF 29.1% at cross-over)", "value": "29.8%±3.7%"}, {"measurement": "Mean arterial pressure (MAP)", "setting": "[4]", "value": 115, "unit": "mmHg"}, {"measurement": "TGβ1-induced inflammatory response", "setting": "[5]", "value": "no difference"}, {"measurement": "ET-1-induced NPPB (BNP) expression", "setting": "[6]", "value": "protective effect"}, {"measurement": "Mitochondria morphology by electron microscopy", "setting": "[7]", "value": "no difference"}, {"measurement": "Mitochondria number estimated by mtDNA to nuclear DNA ratio", "setting": "[7]", "value": "no difference"}, {"measurement": "Oxidative phosphorylation (OXPHOS) measured by oxygen consumption rate", "setting": "[7]", "value": "no difference"}]}]}
